Experimental data taken from US20230130403A1, “METHODS OF TREATMENT WITH S1P RECEPTOR MODULATORS” (PRIOTHERA SAS, priority 2021, published 2023).

How the values were obtained:
[1] = test system: allogeneic-stimulated T cell proliferation; assay: Mixed lymphocyte reactions (MLR); assay type: cell-based; conditions: therapeutic concentrations in vitro
Description: KRP203 reduces lymphocyte counts in peripheral blood by more than 80%.

[2] = test system: bronchoconstrictor response induced by challenge agents; assay: Safety pharmacology: bronchoconstrictor response in rats; assay type: in vivo, rat; conditions: rats pre-treated with 3 mg/kg
Description: (§1) Based on the available in vitro and in vivo data, except for the potential to cause a negative chronotropic effect and some mild increase in blood pressure, there is no indication that KRP203 would cause arrhythmia or QT prolongation in man.

hERG channels = hERG channels (Homo sapiens, UniProt Q12809); assay: hERG channel inhibition in vitro; assay type: biochemical; conditions: between 0.5 and 10 μM
Chain of hERG channels (Q12809 whole entry): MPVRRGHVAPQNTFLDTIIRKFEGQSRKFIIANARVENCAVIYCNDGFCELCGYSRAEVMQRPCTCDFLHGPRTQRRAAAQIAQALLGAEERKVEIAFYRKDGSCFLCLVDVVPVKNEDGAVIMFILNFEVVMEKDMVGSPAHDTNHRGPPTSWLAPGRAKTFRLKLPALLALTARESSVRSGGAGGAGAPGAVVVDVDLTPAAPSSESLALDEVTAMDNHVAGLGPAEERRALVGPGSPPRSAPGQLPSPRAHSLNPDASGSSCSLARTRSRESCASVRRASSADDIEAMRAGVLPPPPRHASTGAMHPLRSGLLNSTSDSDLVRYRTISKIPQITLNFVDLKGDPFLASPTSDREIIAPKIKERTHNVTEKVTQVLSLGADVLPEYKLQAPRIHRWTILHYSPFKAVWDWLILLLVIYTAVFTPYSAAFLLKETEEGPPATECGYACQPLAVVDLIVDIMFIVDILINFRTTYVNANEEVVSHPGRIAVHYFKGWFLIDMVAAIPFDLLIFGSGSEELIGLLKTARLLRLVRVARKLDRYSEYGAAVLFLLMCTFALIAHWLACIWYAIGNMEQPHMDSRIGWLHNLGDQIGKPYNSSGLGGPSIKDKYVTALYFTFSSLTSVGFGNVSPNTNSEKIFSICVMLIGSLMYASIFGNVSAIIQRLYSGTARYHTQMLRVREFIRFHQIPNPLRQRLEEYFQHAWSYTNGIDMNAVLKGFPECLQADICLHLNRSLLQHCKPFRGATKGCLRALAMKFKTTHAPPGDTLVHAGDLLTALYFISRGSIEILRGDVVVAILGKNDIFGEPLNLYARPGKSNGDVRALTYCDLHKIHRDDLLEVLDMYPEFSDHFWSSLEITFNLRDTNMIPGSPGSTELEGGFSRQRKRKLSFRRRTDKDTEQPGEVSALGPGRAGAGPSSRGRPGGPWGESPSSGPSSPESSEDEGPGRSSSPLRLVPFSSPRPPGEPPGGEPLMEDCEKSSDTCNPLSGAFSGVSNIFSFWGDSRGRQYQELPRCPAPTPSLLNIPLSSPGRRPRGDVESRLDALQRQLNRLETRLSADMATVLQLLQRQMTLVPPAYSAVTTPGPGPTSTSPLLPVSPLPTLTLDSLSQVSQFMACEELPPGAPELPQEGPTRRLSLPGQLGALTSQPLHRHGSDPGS
Description: as §1

QT prolongation = QT prolongation in telemetered dogs; assay type: in vivo, dog
Description: as §1

heart rate = assay: Heart rate in isolated rabbit heart or guinea pig
Description: as §1

[3] = test system: human cytochrome P450 isoenzymes; assay: Inhibition of cytochrome P450 isoenzymes in vitro; assay type: in vitro ADME
Protocol: The in vivo ratio of phosphorylated KRP203 to KRP203 in plasma was up to 45 in rat. As the metabolic activities on KRP203 in human blood and hepatocytes were lower than those of other species, the metabolic clearance of KRP203 in man is expected be lower than that in rat and dog. […] KRP230 formed low amounts of covalent drug-protein adducts in human hepatocytes in vitro. Due to the low levels detected ([…] at 3 hours) in-vitro adduct formation is unlikely to be associated with clinical relevant findings at low dose levels (e.g. below 10 mg).
The weak inhibitory effect of ciclosporin on hepatic CYP3A4 is unlikely to relevantly impact the PK of KRP203.

[4] = target: CYP3A4 via the human PXR receptor (Homo sapiens, UniProt O75469); assay: CYP3A4 induction via PXR; assay type: in vitro ADME
Chain of CYP3A4 via the human PXR receptor (O75469 whole entry): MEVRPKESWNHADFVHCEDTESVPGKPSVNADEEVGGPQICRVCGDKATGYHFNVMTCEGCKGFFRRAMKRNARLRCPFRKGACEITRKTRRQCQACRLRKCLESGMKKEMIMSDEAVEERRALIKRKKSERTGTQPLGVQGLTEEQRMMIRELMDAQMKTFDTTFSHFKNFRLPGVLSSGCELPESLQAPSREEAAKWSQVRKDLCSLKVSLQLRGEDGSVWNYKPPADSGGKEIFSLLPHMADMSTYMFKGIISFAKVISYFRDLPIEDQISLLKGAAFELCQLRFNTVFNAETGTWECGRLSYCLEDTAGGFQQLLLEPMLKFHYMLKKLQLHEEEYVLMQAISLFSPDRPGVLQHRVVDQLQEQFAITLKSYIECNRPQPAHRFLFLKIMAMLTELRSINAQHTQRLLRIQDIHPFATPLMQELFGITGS

mice [5] = assay: Acute toxicity in mice; assay type: in vivo
[6] = Repeat-dose toxicity studies in mice; conditions: in vivo; 13-week mouse study, 20 mg/kg; read-out: systemic exposure (AUC0-24 h)
Protocol: (§2) The kidney was a target organ of toxicity in mice only and only in a 2-week study at doses ≥45 mg/kg.
(§3) Kidney impairment was most likely the primary cause of death/moribundity seen in this study.

mice [7] = assay: Repeat-dose toxicity studies in mice; conditions: mouse, in vivo
Protocol: as §2, §3

rats = assay: Repeat-dose toxicity studies in rats; assay type: in vivo
Description: Transitory activation of phagocytic cells and increased secretion of soluble markers by these cells is considered a main contributing factor to smooth muscle hypertrophy/hyperplasia.

bacterial mutation = assay: In vitro genotoxicity: bacterial mutation; assay type: cell-based
micronucleus = assay: In vivo micronucleus study in mice; design: species or system mouse
eye irritation = assay: Eye irritation; conditions: in vivo
[8] = test system: contact sensitizing potential; assay: Contact sensitization; conditions: in vivo
[9] = test system: healthy volunteers and patients (ulcerative colitis, subacute cutaneous lupus erythematosus, Crohn's disease); assay: Placebo-controlled clinical trials of KRP203 in healthy volunteers and patients; assay type: in vivo, human
Protocol: The clinical experience with mocravimod includes single doses up to 40 mg in healthy volunteers and multiple doses up to 3 mg/day in healthy volunteers and patients. […] In the phase […] study, mocravimod was administered for up to around 3 months in patients with several different hematologic malignancies receiving allogeneic HSCT. […] However, patient numbers were low and efficacy results warrant more data in a more homogeneous patient population. To gather more data on both doses, this phase IIb study will investigate mocravimod at two different dose levels, a daily dose of 1 mg as well as of 3 mg.

[10] = dog, in vivo
[11] = test system: patients undergoing allogeneic HSCT for hematological malignancies; assay: Study CKRP203A2105, phase Ib in patients undergoing allogeneic HSCT;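 further: counts of subjects, HLA-matched donor stem cells, transplant on Day 11 following myeloablative chemotherapy conditioning from Day 2 to Day 10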
Description: The study population comprised of male or female subjects who were diagnosed with a hematological malignancy and qualified for a standard allogeneic HSCT where HLA matched stem cell source was available. Such malignancies included but were not limited to acute myeloid leukemia (AML), acute lymphoid leukemia (ALL), myelodysplastic syndrome (MDS, chronic lymphoid leukemia (CLL), marginal zone and follicular lymphomas, large-cell lymphoma, lymphoblastic, Burkitt's and other high grade lymphomas; mantle-cell lymphoma, lymphoplasmacytic lymphoma; prolymphocytic leukemia or multiple myeloma.
HSCT was performed on Day 11. In addition to the investigational treatment with KRP203, the activities included conditioning, standard GvHD prophylaxis, infusion of the stem cells, pre and post-transplant supportive care and follow-up assessments according to the institutional practices. Subjects remained hospitalized for two to five days after bone marrow engraftment occurred. The subsequent study visits were ambulatory or in-house, if needed depending on the health status of the subject.
Myeloablative conditioning was performed between Day 2 and Day 10 as per SOC using chemotherapy.
As in Part 1, HSCT was performed on Day 11, all other procedures/visits were same as in Part 1.

[12] = Part 1, 3 mg KRP203+CsA, n=10, after 30 days of transplant
[13] = Part 1, 3 mg KRP203+CsA, n=10, from transplant up to 30 days of transplant
[14] = Part 1, 3 mg KRP203+CsA, n=10, start of treatment until just before transplant
[15] = Part 1, after 30 days of transplantation
[16] = Part 1, start of treatment until just before transplant
[17] = Part 2, 1 mg KRP203+CsA arm, from transplant up to 30 days after transplant
[18] = Part 2, after 30 days of transplantation
[19] = Part 2, following 30 days after transplant

NC(CO)(CO)CCc1ccc(Sc2cccc(OCc3ccccc3)c2)cc1Cl [KRP203, 2-amino-2-[4-(3-benzyloxyphenylthio)-2-chlorophenyl] ethyl-propane-1,3-diol]
inhibition of allogeneic-stimulated T cell proliferation [1]: does not inhibit | effects on bronchoconstrictor response induced by challenge agents [2]: no significant effects | inhibition of hERG channels (hERG channels): slight inhibitory potential | QT prolongation (QT prolongation): No indication for QT prolongation | potential to decrease heart rate, extrapolated exposure (heart rate): 20.1 µM | effect on cytochromes P450 enzymes and transporters [3]: lack of effect | potential in inhibiting the activity of human cytochrome P450 isoenzymes ([3]; in vitro tests): did not show relevant potential | no significant induction of CYP3A4 via the human PXR receptor up to concentration [4]: ≤ 6.15 µM | intravenous dose producing lethality (mice [5]): above 50 mg/kg | AUC0-24 [6]: ~7250 ng·h/mL | doses with kidney toxicity (mice [7]; both, 2 weeks): ≥ 45 mg/kg | doses with mortality (mice [7]; both, 2 weeks): ≥ 45 mg/kg/day | no kidney changes up to highest dose level (mice [7]; 13 weeks): ≤ 20 mg/kg | local tolerability in the gastro-intestinal tract (rats; oral dosing in rats or dogs up to 26 or 13 weeks): no indication for impaired local tolerability | hepatic effects (rats; rats and mice, not in dogs): mild and did only occur at high dose levels | no mortality up to daily dose (rats; rats, up to 26-week): ≤ 50 mg/kg | genotoxic potential (bacterial mutation): no evidence for a genotoxic potential | genotoxic potential (micronucleus): no evidence for a genotoxic potential | eye irritation (eye irritation): marked eye irritation | contact sensitizing potential [8]: does not have a contact sensitizing potential | tolerability [9]: well tolerated | accumulation after repeated dosing (4 and 13 weeks) [10]: no evidence of accumulation | subjects with AEs that resulted in discontinuation of study drug ([11]; 1 mg KRP203+CsA arm): 33% | safety profile between dose groups ([11]; 1 mg/day plus CsA or 3 mg/day plus CsA or TAC): comparable between the 1 mg and 3 mg mocravimod dose groups | subjects with AEs that resulted in discontinuation of study drug ([11]; 3 mg KRP203+CsA arm): 29% | subjects with AEs that resulted in discontinuation of study drug ([11]; 3 mg KRP203+Tac arm): 14% | subjects with AEs, SOC general disorders and administration site conditions [11, 12]: 60% | subjects with AEs, SOC immune system disorders [11, 12]: 100% | subjects with AEs, SOC infection and infestations [11, 12]: 50% | subjects with acute GvHD in intestine [11, 12]: 30% | subjects with acute GvHD in skin [11, 12]: 30% | subjects with chronic GvHD [11, 12]: 70% | subjects with chronic GvHD in intestine [11, 12]: 20% | subjects with chronic GvHD in liver [11, 12]: 50% | subjects with chronic GvHD in skin [11, 12]: 30% | subjects with diarrhea [11, 12]: 20% | subjects with edema peripheral [11, 12]: 40% | subjects with edema peripheral suspected related to study treatment [11, 12]: 20% | subjects with eyelid edema [11, 12]: 20% | subjects with nausea [11, 12]: 20% | subjects with rash [11, 12]: 20% | subjects with AEs, SOC gastrointestinal disorder [11, 13]: 70% | subjects with AEs, SOC immune system disorders [11, 13]: 30% | subjects with AEs, SOC nervous system disorders [11, 13]: 30% | subjects with AEs, SOC respiratory, thoracic and mediastinal disorders [11, 13]: 40% | subjects with AEs, SOC vascular disorders [11, 13]: 30% | subjects with acute GvHD in intestine [11, 13]: 30% | subjects with capillary leak syndrome (suspected related to study treatment) [11, 13]: 20% | subjects with nausea [11, 13]: 20% | subjects with pleural effusion (suspected related to study treatment) [11, 13]: 20% | subjects with vomiting [11, 13]: 60% | subjects with AEs, SOC gastrointestinal disorders [11, 14]: 60% | subjects with bradycardia [11, 14]: 20% | subjects with bradycardia suspected related to study treatment [11, 14]: 20% | subjects with hypertension suspected related to study treatment [11, 14]: 10% | subjects with nausea [11, 14]: 20% | subjects with sinus arrest suspected related to study treatment [11, 14]: 10% | subjects with vomiting [11, 14]: 40% | subjects reporting AEs ([11]; Part 1, after 30 days of study treatment): all subjects | subjects with serious AEs suspected related (cystoid macular edema, dyspnea exertional, edema peripheral) ([11]; Part 1, after 30 days of transplant, mild severities): 10% | subjects with SAEs [11, 15]: 40% | subjects with SAEs, general disorders and administration site conditions [11, 15]: 30% | subjects with SAEs, infections and infestations [11, 15]: 20% | subjects with SAEs, neoplasms benign, malignant and unspecified [11, 15]: 20% | subjects with serious AEs (acute GvHD, dyspnea and weight increased) ([11]; Part 1, from transplant up to 30 days after the transplant): 20% | subjects reporting AEs [11, 16]: seven subjects | subjects with serious AE of vomiting [11, 16]: 10% | subjects reporting AEs ([11]; Part 1, up to 30 days of transplant): nine subjects | subjects with serious AEs of blepharitis and cystoid macular edema [11, 17]: 10% | subjects with serious AEs suspected related (blepharitis Grade 2, cystoid macular edema Grade 3) [11, 17]: 17% | subjects with at least one AE ([11]; Part 2, both treatment arms (n=13), in each of the three periods): 100% | subjects with serious AE acute GvHD in intestine [11, 18]: 23% | subjects with serious AE diarrhea [11, 18]: 15% | subjects with serious AE general physical health deterioration [11, 18]: 15% | incidence each of febrile bone marrow aplasia, hepatic failure, Hodgkin's disease, macular ischemia and retinal ischemia (related SAEs) [11, 19]: 8% | subjects with serious AEs suspected related to study treatment [11, 19]: 31% | serious AEs ([11]; Part 2, start of treatment until just before transplant): No serious AE | study discontinuation due to AEs ([11]; all 23 treated subjects): 13% | study discontinuation due to death ([11]; all 23 treated subjects): 9% | deaths reported ([11]; overall, during the study, one-year and long-term follow-up period): seven
